Measured values reported in patent publication US10500198B2, “Bis-benzylidine piperidone proteasome inhibitor with anticancer activity” (The Johns Hopkins University, priority 2013, dated 2019).
pIC50: −log10 of the molar value. Where a name gives a salt, the structure may show the parent alone. Read-outs that look alike come from different tables or passages of the source. Where a SMILES comes first, the peptide text is derived from it. The star is where a group is joined. Cbz = O=C(OCc1ccccc1)*

How the values were obtained:
[1] = system: HeLa; assay: Cell viability after 48-hr treatment (Table 1); type: cell-based, human; conditions: for pIC50: read-out: IC50, HeLa; for potency in cell killing and polyubiquitin accumulation / functional assays relative to RA190: HeLa cells, FIGS. 1I, 9I, 10A-10C
Experimental: (§1) Cell viability was assayed using CellTiter 960 AQueous One Solution Reagent (Promega, Madison, Wis.). Cells seeded at the concentration of 1,000 cells/well for HeLa, 5,000 cells/well for ES2 and HCT116 and 10,000-20,000 cells/well for other cell lines in 100 μL medium in 96-well plate were treated with RA series compounds at specified concentrations. […]

[2] = system: OVCAR3; assay: Cell viability after 48-hr treatment (Table 1); type: cell-based, human; conditions: XTT assay
Experimental: as §1

[3] = system: CasKi; assay: Cell viability after 48-hr treatment (Table 1); type: cell-based; conditions: read-out: IC50, CasKi
Experimental: (§2) Cell viability was assayed using CellTiter 960 AQueous One Solution Reagent (Promega, Madison, Wis.). Cells seeded at the concentration of 1,000 cells/well for HeLa, 5,000 cells/well for ES2 and HCT116 and 10,000-20,000 cells/well for other cell lines in 100 μL medium in 96-well plate were treated with RA series compounds at specified concentrations. After the indicated periods, cells were incubated according to the manufacturer's protocol with the MTS labeling mixture for 1-2 hr and absorbance at 490 nm measured using a Benchmark Plus microplate spectrophotometer (BIO-RAD).

[4] = system: HOK-16B; assay: Cell viability after 48-hr treatment (Table 1); type: cell-based; conditions: read-out: IC50, HOK-16B
Experimental: as §2

[5] = system: HT3; assay: Cell viability after 48-hr treatment (Table 1); type: cell-based; conditions: read-out: IC50, HT3
Experimental: (§3) Cells seeded at the concentration of 1,000 cells/well for HeLa, 5,000 cells/well for ES2 and HCT116 and 10,000-20,000 cells/well for other cell lines in 100 μL medium in 96-well plate were treated with RA series compounds at specified concentrations. […]

[6] = system: HaCaT; assay: Cell viability after 48-hr treatment (Table 1); type: cell-based; conditions: read-out: IC50, HaCaT
Experimental: as §3

[7] = system: SiHa; assay: Cell viability after 48-hr treatment (Table 1); type: cell-based; conditions: read-out: IC50, SiHa
Experimental: as §3

[8] = system: C33A; assay: Cell viability after 48-hr treatment (Table 1); type: cell-based; conditions: read-out: IC50, C33A
Experimental: as §1

[9] = system: FaDu; assay: Cell viability after 48-hr treatment (Table 1); type: cell-based; conditions: read-out: IC50, FaDu
Experimental: as §1

[10] = system: SKOV3; assay: Cell viability after 48-hr treatment (Table 1); type: cell-based; conditions: read-out: IC50, SKOV3
Experimental: as §1

[11] = system: cancer cells; assay: Antiproliferative activity against cancer cells (design rationale); type: cell-based
From the text: We used Chloro and Nitro functional groups as substituent's on the aromatic ring due to their greater electron withdrawing effect at ortho (or) para (or) meta (or) both positions along with different amino acid linkages on bis-benzylidine piperidone moiety. Amino acids were chosen based in their physical characteristics like very hydrophobic (phenylalanine), strongly basic and hydrophilic (lysine), basic and hydrophilic (histidine) and amphiphilic (glycine). Commercially available Fmoc and Boc protected amino acids were used in the synthesis, and they were evaluated for their antiproliferatory activity against cancer cells.
Next we synthesized another set of compounds by converting free amine functionality to its Acetate (Ac), Acrolyl (Acr) and Benzoyl […] analogs as these units are part of many anticancer drugs because of their smaller size and feasibility to form inter molecular hydrogen bonds with proteins.
In the RA195 molecule two amino functionalities of lysine can provide more flexibility to make better analogs.

[12] = target: T1, RPN13 (Homo sapiens, UniProt Q16186); assay: Biotin labeling assay; type: binding; conditions: cell lysate or purified RP, streptavidin-peroxidase blot
T1 construct: endogenous in cells; host or cells: HeLa, HS578T cell lysate
T1 sequence (Q16186 whole entry): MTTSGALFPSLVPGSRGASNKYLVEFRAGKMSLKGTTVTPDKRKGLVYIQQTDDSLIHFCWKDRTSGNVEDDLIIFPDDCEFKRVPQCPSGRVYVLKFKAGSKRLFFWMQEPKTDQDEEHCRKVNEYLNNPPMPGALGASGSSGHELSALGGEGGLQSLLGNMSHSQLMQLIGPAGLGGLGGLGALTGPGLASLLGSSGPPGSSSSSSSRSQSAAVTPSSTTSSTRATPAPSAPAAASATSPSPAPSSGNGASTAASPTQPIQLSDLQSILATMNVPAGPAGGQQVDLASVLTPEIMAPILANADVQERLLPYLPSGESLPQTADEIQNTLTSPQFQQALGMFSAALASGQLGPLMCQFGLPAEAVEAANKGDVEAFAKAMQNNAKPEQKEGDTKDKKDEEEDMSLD
Experimental: FIGS. 10 A-10E show a series of graphs and immunoblots showing the effects of several compounds on cell viability and proteasome activity. […] 10B and 10C show immunoblots of the proteasome activity of cell lines treated with the indicated compounds. […] IC50 values were determined in triplicate. In FIG. 10B, HeLa cells were treated for 12 hr and the cell lysate was subjected to immunoblot analysis with anti-Ubiquitin antibody. In FIG. 10C, SiHa cells were treated with the indicated compounds for 12 hr and the lysate subjected to Western blot analysis with anti-Ubiquitin antibody. HeLa cell lysate was treated with RA190B, subjected to SDS-PAGE, and probed with streptavidin-peroxidase following protein transfer to a polyvinylidene difluoride (PVDF) membrane. The streptavidin-peroxidase bound to biotinylated cellular proteins, but a striking new band at 42 kDa appeared in RA190B-treated samples (FIG. 2A). […] IC50 values were determined in triplicate.
To eliminate the possibility that another RP component was required for RA190B interaction, RPN13 or an irrelevant protein (L2) was overexpressed in bacteria. Cell lysate harvested from bacteria either with or without […] induction of ectopic protein expression was labeled with RA190B and probed by blotting with streptavidin-peroxidase. RA190B reacted strongly with a 42 kDa protein only in lysates of bacteria expressing RPN13 (FIG. 2D). […] 800 μL fractions were collected and alternate fractions (1,3,5,7,9,11,13,15,17) were analyzed for the presence of proteasomal proteins (RPN13, RPN2, RPN1 and UCH37) by Western blot analysis.
Human cells (5×10^6 HeLa or 293TT cells) were lysed using MPER (Pierce) lysis buffer (500 μL). RPN13 or HPV L2 transformed bacterial cells (500 μL of culture) were centrifuged to harvest the cells which were re-suspended in 500 μL BPER (Pierce). Cell lysates were centrifuged at 10,000 rpm briefly (2 min) at 4° C. to remove cell debris. Lysate supernatant (200 μL) was pre cleared with streptavidin dyna beads (20 μL) for 1 h at 4° C. to remove non-specific biotin binding and incubated with compounds (indicated concentrations or 20 μM) at 4° C. for 1 hr. An equal amount of each sample (20 μL of lysate) was mixed with an equal volume of Laemmli sample buffer (20 μL) (BioRad) and was boiled for 5 min. […] (24 V). Membrane was blocked with 5% BSA in PBST for 1 hr at room temperature and washed for 20 min (3×PBST). Then the membrane was probed with HRP-streptavidin (1:10,000 in PBST) for 1 hr at room temperature and washed for 30 min (3×PBST) and developed using HyGLO chemiluminescent detection reagent (Denville) for biotin recognition. For the purified enzyme assay, 19S purified proteasome (R&D Systems, Cat. No. E-366) (500 ng) in 19S buffer (20 mM HEPES, 20 mM NaCl, 1 mM DTT, 15% Glycerol) was incubated with compounds (20 μM) for 1 hr at room temperature and mixed with an equal volume of Laemmli sample buffer (20 μL) (BioRad) and was boiled for 5 min. Each sample was loaded onto gel and followed the western blot protocol mentioned above.
Purified 19S proteasome (500 ng) was incubated with corresponding compounds for 30 min and subjected to immunoblot and probed with HRP-conjugated streptavidin. In FIG. 23, the single band at 42 KDa indicates Rpn13 binding to 195. RA183B (20 μM) is used as positive control for Rpn13 binding. Competition experiments were done with RA183 (100 μM) and RA195 (100 μM) along with RA195B (20 μM).

Compound | pIC50 ([1]; 48-hr treatment, XTT assay) | pIC50 [2] | pIC50 ([3]; 48-hr treatment, XTT assay) | pIC50 ([4]; 48-hr treatment, XTT assay) | pIC50 ([5]; 48-hr treatment, XTT assay) | pIC50 ([6]; 48-hr treatment, XTT assay) | pIC50 ([7]; 48-hr treatment, XTT assay) | pIC50 ([8]; 48-hr treatment, XTT assay) | pIC50 ([9]; 48-hr treatment, XTT assay) | pIC50 ([10]; 48-hr treatment, XTT assay) | potency in cell killing and polyubiquitin accumulation / functional assays relative to RA190 [1] | other results
N[C@@H](Cc1c[nH]cn1)C(=O)N1CC(=Cc2ccc(Cl)c(Cl)c2)C(=O)C(=Cc2ccc(Cl)c(Cl)c2)C1 [RA196, 3,5-bis(3,4-dichlorobenzylidene)-1-(S-1H-imidazol-4-yl) piperidin-4-one di HCl salt] | 6.22 | 5.60 | 6.00 | 5.52 | < 5.30 | < 5.60 | 5.70 | < 5.30 | < 5.30 | < 5.60 | – | –
CC(C)C[C@@H](C=O)NC(=O)[C@H](CC(C)C)NC(=O)[C@H](CC(C)C)NC(=O)OCc1ccccc1 [MG132, reference compound] (Cbz-Leu-Leu-Leu-aldehyde) | – | – | – | – | – | – | – | – | – | – | – | pIC50 ([1]; Homo sapiens, HeLa, 48 h): 6.12; pIC50 ([3]; Homo sapiens, Ca-Ski, 48 h): 6.30; pIC50 ([4]; 48 h): 6.15; pIC50 ([5]; Homo sapiens, HT-3, 48 h): < 5.30; pIC50 ([6]; Homo sapiens, HaCaT, 48 h): < 5.60; pIC50 ([7]; Homo sapiens, SiHa, 48 h): 5.70; pIC50 ([8]; Homo sapiens, C-33-A, 48 h): < 5.30; pIC50 ([9]; Homo sapiens, FaDu, 48 h): < 5.60; pIC50 ([10]; Homo sapiens, SK-OV-3, 48 h): < 5.60
O=C1/C(=C/c2ccc(Cl)c(Cl)c2)CN(C(=O)[C@H](Cc2ccccc2)NC(=O)c2ccccn2)C/C1=C\c1ccc(Cl)c(Cl)c1 [RA190P] | – | – | – | – | – | – | – | – | – | – | – | antiproliferative potency among analogs [11]: Neither of these compounds was as good as RA190
3,5-bis(3,4-dichlorobenzylidene)-1-(S-2-amino-3-(4-hydroxy)-phenyl)-piperidin-4-one HCl salt [RA213] | 6.22 | < 5.30 | 6.22 | 5.82 | < 5.30 | < 5.60 | 5.60 | < 5.30 | < 5.30 | < 5.60 | – | –
O=C(CCCC[C@@H]1SCC2NC(=O)NC21)NCCCC[C@H](NC(=O)OCC1c2ccccc2-c2ccccc21)C(=O)N1C/C(=C\c2ccc(Cl)c(Cl)c2)C(=O)/C(=C/c2ccc(Cl)c(Cl)c2)C1 (stereo partly shown) [RA195B] | – | – | – | – | – | – | – | – | – | – | – | labeling of / competition for RPN13 (42 kDa band) [12]: labels HeLa cell lysate at 42 KDa
N[C@@H](Cc1ccccc1)C(=O)N1CC(Cc2ccc(Cl)c(Cl)c2)C(O)C(Cc2ccc(Cl)c(Cl)c2)C1 (stereo partly shown) [RA190R] | – | – | – | – | – | – | – | – | – | – | dramatically reduced activity | –
N[C@@H](Cc1ccccc1)C(=O)N1CC(=Cc2ccccc2Cl)C(=O)C(=Cc2ccccc2Cl)C1 [RA166, 3,5-bis(2-chlorobenzylidene)-1-(S-2-amino-3-phenyl)-piperidin-4-one-HCl salt] | 6.22 | < 5.30 | 5.82 | < 5.30 | < 5.30 | < 5.60 | 5.70 | < 5.30 | < 5.30 | < 5.60 | – | –
O=C(CCCC[C@@H]1SCC2NC(=O)NC21)N[C@@H](Cc1ccccc1)C(=O)N1C/C(=C\c2ccc(Cl)c(Cl)c2)C(=O)/C(=C/c2ccc(Cl)c(Cl)c2)C1 (stereo partly shown) [RA190B] | – | – | – | – | – | – | – | – | – | – | did not affect its potency | labeling of / competition for RPN13 (42 kDa band) [12]: bound to the 42 kDa protein
N[C@@H](Cc1ccccc1)C(=O)N1CC(=Cc2ccccc2F)C(=O)C(=Cc2ccccc2F)C1 [RA201, 3,5-bis(2-fluorobenzylidene)-1-(S-2-amino-3-phenyl)-piperidin-4-one-HCl salt] | 6.46 | < 5.30 | 5.60 | 5.82 | < 5.30 | < 5.60 | 5.70 | < 5.30 | < 5.30 | < 5.60 | – | –
N[C@@H](Cc1ccccc1)C(=O)N1CC(=Cc2ccccc2)C(=O)C(=Cc2ccccc2)C1 [RA181, 3,5-dibenzylidene-1-(S-2-amino-3-phenyl)-piperidin-4-one-HCl salt] | 6.46 | < 5.30 | 5.70 | < 5.30 | < 5.30 | < 5.60 | 5.70 | < 5.30 | < 5.30 | < 5.60 | – | –
Cl.N[C@@H](Cc1ccccc1)C(=O)N1CC(C(SCCO)c2ccc(Cl)c(Cl)c2)C(=O)C(C(SCCO)c2ccc(Cl)c(Cl)c2)C1 (stereo partly shown) [RA190ME, 3,5-bis((2-hydroxyethylthio)(3,4-dichlorophenyl)methyl)-1-(S-2-amino-3-phenyl)-piperidin-4-one-HCl salt] | – | – | – | – | – | – | – | – | – | – | significantly reduced its potency | –
Cl.NC(Cc1ccccc1)C(=O)N1C/C(=C\c2ccc(Cl)c(Cl)c2)C(=O)/C(=C/c2ccc(Cl)c(Cl)c2)C1 (stereo not shown) [RA190D] | – | – | – | – | – | – | – | – | – | – | – | antiproliferative potency among analogs [11]: Neither of these compounds was as good as RA190
N[C@@H](Cc1ccccc1)C(=O)N1C/C(=C\c2ccc(Cl)c(Cl)c2)C(=NO)/C(=C/c2ccc(Cl)c(Cl)c2)C1 [RA190O] | – | – | – | – | – | – | – | – | – | – | dramatically reduced activity | –
